In patent publication US20230085307A1, “PYRIDAZINONE COMPOUND AND HERBICIDE” (NISSAN CHEMICAL CORPORATION, priority 2019, published 2023):

What was measured:
[1] = tested on: false cleavers; assay: Test Example 4: herbicidal effect by soil treatment (Table 19, symbol Q); assay type: in vivo, false cleavers (Galium spurium); details: amount of applied herbicide 320 g/ha
In short: (§1)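 Applied as a water-diluted emulsion, the compound was sprayed onto soil covering newly sown seeds. Evaluation came three weeks after application, in a greenhouse held at 25° C. to 30° C.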

[2] = tested on: barnyard grass; assay: Test Example 4: herbicidal effect by soil treatment (Table 19, symbol H); assay type: in vivo, barnyard grass (Echinochloa crus-galli); details: amount of applied herbicide 320 g/ha
In short: as §1

[3] = tested on: rice flat sedge; assay: Test Example 3: herbicidal effect by foliage application, Wagner pot (Table 18, symbol E); assay type: in vivo, rice flat sedge (Cyperus iria); details: amount of applied herbicide 320 g/ha
In short: (§2)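 Plants were sown in alluvial soil held under 0.1–0.5 cm standing water and grown 14 days in a greenhouse at 25–30 °C. An emulsifiable formulation, water-diluted to the set dose, was then sprayed onto the foliage, and effects were scored three weeks later using previously defined criteria.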

[4] = tested on: velvetleaf; assay: Test Example 4: herbicidal effect by soil treatment (Table 19, symbol M); assay type: in vivo, velvetleaf (Abutilon theophrasti); details: amount of applied herbicide 320 g/ha
In short: as §1

[5] = tested on: persian speedwell; assay: Test Example 4: herbicidal effect by soil treatment (Table 19, symbol R); assay type: in vivo, Persian speedwell (Veronica persica); details: amount of applied herbicide 320 g/ha
In short: as §1

[6] = tested on: Italian ryegrass; assay: Test Example 5: herbicidal effect by foliage application, plastic box (Table 20, symbol K); assay type: in vivo, Italian ryegrass (Lolium multiflorum); details: foliage application, 320 g/ha, evaluated three weeks after application
In short: (§3)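 Sow seeds spot-wise in sterilized diluvial soil; cover with ~1.5 cm soil. Grow 14 days in greenhouse, 25° C. to 30° C. Spray foliage with emulsion diluted to predetermined amount. Rate effect after 3 weeks.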

[7] = tested on: southern crabgrass; assay: Test Example 5: herbicidal effect by foliage application, plastic box (Table 20, symbol F); assay type: in vivo, southern crabgrass (Digitaria ciliaris); details: foliage application, 320 g/ha, evaluated three weeks after application
In short: as §3

[8] = tested on: velvetleaf; assay: Test Example 5: herbicidal effect by foliage application, plastic box (Table 20, symbol M); assay type: in vivo, velvetleaf (Abutilon theophrasti); details: foliage application, 320 g/ha, evaluated three weeks after application
In short: as §3

[9] = tested on: Italian ryegrass; assay: Test Example 4: herbicidal effect by soil treatment (Table 19, symbol K); assay type: in vivo, Italian ryegrass (Lolium multiflorum); details: amount of applied herbicide 320 g/ha
In short: as §1

[10] = tested on: blackgrass; assay: Test Example 4: herbicidal effect by soil treatment (Table 19, symbol J); assay type: in vivo, blackgrass (Alopecurus myosuroides); details: amount of applied herbicide 320 g/ha
In short: as §1

[11] = tested on: redroot pigweed; assay: Test Example 5: herbicidal effect by foliage application, plastic box (Table 20, symbol N); assay type: in vivo, redroot pigweed (Amaranthus retroflexus); details: foliage application, 320 g/ha, evaluated three weeks after application
In short: as §3

[12] = tested on: green foxtail; assay: Test Example 4: herbicidal effect by soil treatment (Table 19, symbol G); assay type: in vivo, green foxtail (Setaria viridis); details: amount of applied herbicide 320 g/ha
In short: as §1

[13] = tested on: southern crabgrass; assay: Test Example 4: herbicidal effect by soil treatment (Table 19, symbol F); assay type: in vivo, southern crabgrass (Digitaria ciliaris); details: amount of applied herbicide 320 g/ha
In short: as §1

[14] = tested on: chickweed; assay: Test Example 4: herbicidal effect by soil treatment (Table 19, symbol P); assay type: in vivo, common chickweed (Stellaria media); details: amount of applied herbicide 320 g/ha
In short: as §1

[15] = tested on: Chinese sprangletop; assay: Test Example 3: herbicidal effect by foliage application, Wagner pot (Table 18, symbol D); assay type: in vivo, chinese sprangletop (Leptochloa chinensis); details: amount of applied herbicide 320 g/ha
In short: as §2

[16] = tested on: windgrass; assay: Test Example 5: herbicidal effect by foliage application, plastic box (Table 20, symbol L); assay type: in vivo, windgrass (Apera spica-venti); details: foliage application, 320 g/ha, evaluated three weeks after application
In short: as §3

[17] = tested on: chickweed; assay: Test Example 5: herbicidal effect by foliage application, plastic box (Table 20, symbol P); assay type: in vivo, common chickweed (Stellaria media); details: foliage application, 320 g/ha, evaluated three weeks after application
In short: as §3

[18] = tested on: blackgrass; assay: Test Example 5: herbicidal effect by foliage application, plastic box (Table 20, symbol J); assay type: in vivo, blackgrass (Alopecurus myosuroides); details: foliage application, 320 g/ha, evaluated three weeks after application
In short: as §3

[19] = tested on: redroot pigweed; assay: Test Example 4: herbicidal effect by soil treatment (Table 19, symbol N); assay type: in vivo, redroot pigweed (Amaranthus retroflexus); details: amount of applied herbicide 320 g/ha
In short: as §1

[20] = tested on: wild oat; assay: Test Example 4: herbicidal effect by soil treatment (Table 19, symbol I); assay type: in vivo, wild oat (Avena fatua); details: amount of applied herbicide 320 g/ha
In short: as §1

[21] = tested on: persian speedwell; assay: Test Example 5: herbicidal effect by foliage application, plastic box (Table 20, symbol R); assay type: in vivo, Persian speedwell (Veronica persica); details: foliage application, 320 g/ha, evaluated three weeks after application
In short: as §3

[22] = tested on: lambsquarters; assay: Test Example 5: herbicidal effect by foliage application, plastic box (Table 20, symbol O); assay type: in vivo, lambsquarters (Chenopodium album); details: foliage application, 320 g/ha, evaluated three weeks after application
In short: as §3

[23] = tested on: windgrass; assay: Test Example 4: herbicidal effect by soil treatment (Table 19, symbol L); assay type: in vivo, windgrass (Apera spica-venti); details: amount of applied herbicide 320 g/ha
In short: as §1

[24] = tested on: barnyard grass; assay: Test Example 5: herbicidal effect by foliage application, plastic box (Table 20, symbol H); assay type: in vivo, barnyard grass (Echinochloa crus-galli); details: foliage application, 320 g/ha, evaluated three weeks after application
In short: as §3

[25] = tested on: barnyard grass; assay: Test Example 3: herbicidal effect by foliage application, Wagner pot (Table 18, symbol H); assay type: in vivo, barnyard grass (Echinochloa crus-galli); details: amount of applied herbicide 320 g/ha
In short: as §2

[26] = tested on: wild oat; assay: Test Example 5: herbicidal effect by foliage application, plastic box (Table 20, symbol I); assay type: in vivo, wild oat (Avena fatua); details: foliage application, 320 g/ha, evaluated three weeks after application
In short: as §3

[27] = tested on: green foxtail; assay: Test Example 5: herbicidal effect by foliage application, plastic box (Table 20, symbol G); assay type: in vivo, green foxtail (Setaria viridis); details: foliage application, 320 g/ha, evaluated three weeks after application
In short: as §3

[28] = tested on: lambsquarters; assay: Test Example 4: herbicidal effect by soil treatment (Table 19, symbol O); assay type: in vivo, lambsquarters (Chenopodium album); details: amount of applied herbicide 320 g/ha
In short: as §1

CCSc1cccc(-c2sc3ccc(F)cc3c2-c2c(O)c(C)nn(C)c2=O)c1 [2-242]
herbicidal effect on Q: false cleavers [1]: 0 (Herbicidal rate of 5% or less (almost no effect))
herbicidal effect on H: barnyard grass [2]: 0 (Herbicidal rate of 5% or less (almost no effect))
herbicidal effect on E: rice flat sedge [3]: 2 (Herbicidal rate of 20% or more and less than 40%)
herbicidal effect on M: velvetleaf [4]: 0 (Herbicidal rate of 5% or less (almost no effect))
herbicidal effect on R: persian speedwell [5]: 4 (Herbicidal rate of 70% or more and less than 90%)
herbicidal effect on K: Italian ryegrass (criteria 0-5) [6]: 1 (Herbicidal rate of 5% or more and less than 20%)
herbicidal effect on F: southern crabgrass (criteria 0-5) [7]: 3 (Herbicidal rate of 40% or more and less than 70%)
herbicidal effect on M: velvetleaf (criteria 0-5) [8]: 3 (Herbicidal rate of 40% or more and less than 70%)
herbicidal effect on K: Italian ryegrass [9]: 0 (Herbicidal rate of 5% or less (almost no effect))
herbicidal effect on J: blackgrass [10]: 0 (Herbicidal rate of 5% or less (almost no effect))
herbicidal effect on N: redroot pigweed (criteria 0-5) [11]: 4 (Herbicidal rate of 70% or more and less than 90%)
herbicidal effect on G: green foxtail [12]: 0 (Herbicidal rate of 5% or less (almost no effect))
herbicidal effect on F: southern crabgrass [13]: 0 (Herbicidal rate of 5% or less (almost no effect))
herbicidal effect on P: chickweed [14]: 1 (Herbicidal rate of 5% or more and less than 20%)
herbicidal effect on D: Chinese sprangletop [15]: 0 (Herbicidal rate of 5% or less (almost no effect))
herbicidal effect on L: windgrass (criteria 0-5) [16]: 4 (Herbicidal rate of 70% or more and less than 90%)
herbicidal effect on P: chickweed (criteria 0-5) [17]: 5 (Herbicidal rate of 90% or more (almost completely withered))
herbicidal effect on J: blackgrass (criteria 0-5) [18]: 0 (Herbicidal rate of 5% or less (almost no effect))
herbicidal effect on N: redroot pigweed [19]: 2 (Herbicidal rate of 20% or more and less than 40%)
herbicidal effect on I: wild oat [20]: 0 (Herbicidal rate of 5% or less (almost no effect))
herbicidal effect on R: persian speedwell (criteria 0-5) [21]: 5 (Herbicidal rate of 90% or more (almost completely withered))
herbicidal effect on O: lambsquarters (criteria 0-5) [22]: 3 (Herbicidal rate of 40% or more and less than 70%)
herbicidal effect on L: windgrass [23]: 0 (Herbicidal rate of 5% or less (almost no effect))
herbicidal effect on H: barnyard grass (criteria 0-5) [24]: 1 (Herbicidal rate of 5% or more and less than 20%)
herbicidal effect on H: barnyard grass [25]: 3 (Herbicidal rate of 40% or more and less than 70%)
herbicidal effect on I: wild oat (criteria 0-5) [26]: 4 (Herbicidal rate of 70% or more and less than 90%)
herbicidal effect on G: green foxtail (criteria 0-5) [27]: 3 (Herbicidal rate of 40% or more and less than 70%)
herbicidal effect on O: lambsquarters [28]: 1 (Herbicidal rate of 5% or more and less than 20%)
